Measured values taken from US20240415819A1, “MACROCYCLIC COMPOUNDS AS PROTEASOME SUBUNIT BETA TYPE-5 INHIBITORS” (Lead Discovery Center GmbH, priority 2021, published 2024).

System: hPMBC
Assay: Chymotrypsin-like ProteasomeGlo assay in hPBMC
Type: cell-based
Conditions: Homo sapiens; read-out: Pglo hPBMC
Outline: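 B cells isolated from human PBMC (buffy coats, density gradient, magnetic isolation). Cells treated with compound for 105 min at 37 °C, with staurosporine and DMSO included. Chymotrypsin-like proteasome activity read by luminescence with Suc-LLVY-Glo substrate to derive IC50.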

Row | Structure (SMILES) | IC50 [nM]
1 | Cc1ccc2cc1CNC(=O)[C@H](CCc1ccccc1)NC(=O)[C@@H](NC(=O)C1CCC(C(F)(F)F)N1)CC(=O)N1CCCC(CCO2)C1 (stereo partly drawn) [Compound 157, N-((9S,12S)-5^4-methyl-8,11,14-trioxo-9-phenethyl-4-oxa-7,10-diaza-1(3,1)-piperidina-5(1,3)-benzenacyclotetradecaphane-12-yl)-5-(trifluoromethyl)pyrrolidine-2-carboxamide] | < 100
2 | Cc1ccc2cc1CNC(=O)[C@H](CCc1ccccc1)NC(=O)[C@@H](NC(=O)C1CCCc3ccccc31)CC(=O)N1CCCC(CCO2)C1 (stereo partly drawn) [Compound 82, N-((9S,12S)-5^4-methyl-8,11,14-trioxo-9-phenethyl-4-oxa-7,10-diaza-1(3,1)-piperidina-5(1,3)-benzenacyclotetradecaphane-12-yl)-1,2,3,4-tetrahydronaphthalene-1-carboxamide] | < 100
3 | COCCOCCOCCOC(=O)N[C@H]1CC(=O)N2CCCC(CCOc3ccc(C)c(c3)CNC(=O)[C@H](CCc3ccccc3)NC1=O)C2 (stereo partly drawn) [Compound 220, 2-(2-(2-methoxyethoxy)ethoxy)ethyl ((9R,12R)-5^4-methyl-8,11,14-trioxo-9-phenethyl-4-oxa-7,10-diaza-1(3,1)-piperidina-5(1,3)-benzenacyclotetradecaphane-12-yl)carbamate] | < 100
4 | Cc1ccc2cc1CNC(=O)[C@H](CCc1ccccc1)NC(=O)[C@@H](NC(=O)CN1CCNCC1)CC(=O)N1CCCC(CCO2)C1 (stereo partly drawn) [Compound 126, N-((9S,12S)-5^4-methyl-8,11,14-trioxo-9-phenethyl-4-oxa-7,10-diaza-1(3,1)-piperidina-5(1,3)-benzenacyclotetradecaphane-12-yl)-2-(piperazin-1-yl)acetamide] | < 100
5 | CC(=O)N[C@H]1CCC(=O)NCCCCOc2ccc(C)c(c2)CNC(=O)[C@H](CCc2ccccc2)NC1=O [Compound 171, N-((11S,14S)-1^4-methyl-8,12,15-trioxo-14-phenethyl-2-oxa-7,13,16-triaza-1(1,3)-benzenacycloheptadecaphane-11-yl)acetamide] | < 100
6 | CNCCOCC(=O)N[C@H]1CC(=O)N2CCCC(CCOc3ccc(C)c(c3)CNC(=O)[C@H](CCc3ccccc3)NC1=O)C2 (stereo partly drawn) [Compound 130, N-((9S,12S)-5^4-methyl-8,11,14-trioxo-9-phenethyl-4-oxa-7,10-diaza-1(3,1)-piperidina-5(1,3)-benzenacyclotetradecaphane-12-yl)-2-(2-(methylamino)ethoxy)acetamide] | < 100
7 | Cc1ccc2cc1CNC(=O)[C@H](CCc1ccccc1)NC(=O)[C@@H](NC(=O)CCc1ccc(Br)cc1)CC(=O)N1CCCC(CCO2)C1 (stereo partly drawn) [Compound 175, 3-(4-bromophenyl)-N-((9S,12S)-5^4-methyl-8,11,14-trioxo-9-phenethyl-4-oxa-7,10-diaza-1(3,1)-piperidina-5(1,3)-benzenacyclotetradecaphane-12-yl)propanamide] | < 100
8 | Cc1ccc2cc1CNC(=O)[C@H](CCc1ccccc1)NC(=O)[C@@H](NC(=O)C1(C)COC1)CC(=O)N1CCCC(CCO2)C1 (stereo partly drawn) [Compound 287, 3-methyl-N-((9S,12S)-5^4-methyl-8,11,14-trioxo-9-phenethyl-4-oxa-7,10-diaza-1(3,1)-piperidina-5(1,3)-benzenacyclotetradecaphane-12-yl)oxetane-3-carboxamide] | < 100
9 | Cc1ccc2cc1CNC(=O)[C@H](CCc1ccccc1)NC(=O)[C@@H](NC(=O)C(C)(CO)CO)CC(=O)N1CCCC(CCO2)C1 (stereo partly drawn) [Compound 286, 3-hydroxy-2-(hydroxymethyl)-2-methyl-N-((9S,12S)-5^4-methyl-8,11,14-trioxo-9-phenethyl-4-oxa-7,10-diaza-1(3,1)-piperidina-5(1,3)-benzenacyclotetradecaphane-12-yl)propanamide] | < 100
10 | C=CS(=O)(=O)N[C@H]1CC(=O)N2CCCC(CCOc3ccc(C)c(c3)CNC(=O)[C@H](CCc3ccccc3)NC1=O)C2 (stereo partly drawn) [Compound 180, N-((9S,12S)-5^4-methyl-8,11,14-trioxo-9-phenethyl-4-oxa-7,10-diaza-1(3,1)-piperidina-5(1,3)-benzenacyclotetradecaphane-12-yl)ethenesulfonamide] | < 100
11 | Cc1nc2cc(CCC(=O)N[C@H]3CC(=O)N4CCCC(CCOc5ccc(C)c(c5)CNC(=O)[C@H](CCc5ccccc5)NC3=O)C4)ccc2[nH]1 (stereo partly drawn) [Compound 174, 3-(2-methyl-1H-benzo[d]imidazol-6-yl)-N-((9S,12S)-5^4-methyl-8,11,14-trioxo-9-phenethyl-4-oxa-7,10-diaza-1(3,1)-piperidina-5(1,3)-benzenacyclotetradecaphane-12-yl)propanamide] | < 100
12 | Cc1ccc2cc1CNC(=O)[C@H](CCc1ccccc1)NC(=O)[C@@H](NC(=O)CCc1ccc3[nH]ccc3c1)CC(=O)N1CCCC(CCO2)C1 (stereo partly drawn) [Compound 182, 3-(1H-indol-5-yl)-N-((9S,12S)-5^4-methyl-8,11,14-trioxo-9-phenethyl-4-oxa-7,10-diaza-1(3,1)-piperidina-5(1,3)-benzenacyclotetradecaphane-12-yl)propanamide] | < 100
13 | Cc1ccc2cc1CNC(=O)[C@H](CCc1ccccc1)NC(=O)[C@@H](NC(=O)CN1CCCC1)CC(=O)N1CCCC(CCO2)C1 (stereo partly drawn) [Compound 89, N-((9S,12S)-5^4-methyl-8,11,14-trioxo-9-phenethyl-4-oxa-7,10-diaza-1(3,1)-piperidina-5(1,3)-benzenacyclotetradecaphane-12-yl)-2-(pyrrolidin-1-yl)acetamide] | < 100
14 | Cc1ccc2cc1CNC(=O)[C@H](CCc1ccccc1)NC(=O)[C@@H](NC(=O)C1CC(F)(F)CN1)CC(=O)N1CCCC(CCO2)C1 (stereo partly drawn) [Compound 135, (2S)-4,4-difluoro-N-((9S,12S)-5^4-methyl-8,11,14-trioxo-9-phenethyl-4-oxa-7,10-diaza-1(3,1)-piperidina-5(1,3)-benzenacyclotetradecaphane-12-yl)pyrrolidine-2-carboxamide] | < 100
15 | CCC(CC)(CO)C(=O)N[C@H]1CC(=O)N2CCCC(CCOc3ccc(C)c(c3)CNC(=O)[C@H](CCc3ccccc3)NC1=O)C2 (stereo partly drawn) [Compound 285, 2-ethyl-2-(hydroxymethyl)-N-((9S,12S)-5^4-methyl-8,11,14-trioxo-9-phenethyl-4-oxa-7,10-diaza-1(3,1)-piperidina-5(1,3)-benzenacyclotetradecaphane-12-yl)butanamide] | < 100
16 | Cc1ccc2cc1CNC(=O)[C@H](CCc1ccccc1)NC(=O)[C@@H](NC(=O)C1(F)CCNCC1)CC(=O)N1CCCC(CCO2)C1 (stereo partly drawn) [Compound 134, 4-fluoro-N-((9S,12S)-5^4-methyl-8,11,14-trioxo-9-phenethyl-4-oxa-7,10-diaza-1(3,1)-piperidina-5(1,3)-benzenacyclotetradecaphane-12-yl)piperidine-4-carboxamide] | < 100
17 | COc1cccc(CC(=O)N[C@H]2CC(=O)N3CCCC(CCOc4ccc(C)c(c4)CNC(=O)[C@H](CCc4ccccc4)NC2=O)C3)c1 (stereo partly drawn) [Compound 85, 2-(3-methoxyphenyl)-N-((9S,12S)-5^4-methyl-8,11,14-trioxo-9-phenethyl-4-oxa-7,10-diaza-1(3,1)-piperidina-5(1,3)-benzenacyclotetradecaphane-12-yl)acetamide] | < 100
18 | C=CC(=O)N[C@H]1CC(=O)N2CCCC(CCOc3ccc(C)c(c3)CNC(=O)[C@H](CCc3ccccc3)NC1=O)C2 (stereo partly drawn) [Compound 181, N-((9S,12S)-5^4-methyl-8,11,14-trioxo-9-phenethyl-4-oxa-7,10-diaza-1(3,1)-piperidina-5(1,3)-benzenacyclotetradecaphane-12-yl)acrylamide] | < 100
19 | Cc1ccc2cc1CNC(=O)[C@H](CCc1ccccc1)NC(=O)[C@@H](NC(=O)CCc1ccccc1-c1ccccc1)CC(=O)N1CCCC(CCO2)C1 (stereo partly shown) [Compound 177] | < 100
20 | Cc1cc2cc(c1C)CNC(=O)[C@H](Cc1c[nH]c3ccccc13)NC(=O)CCC(=O)N1CCCC(CCO2)C1 (stereo partly drawn) [Compound 120, (9S)-9-((1H-indol-3-yl)methyl)-5^4,5^5-dimethyl-4-oxa-7,10-diaza-1(3,1)-piperidina-5(1,3)-benzenacyclotetradecaphane-8,11,14-trione] | 100 to 500
21 | CC(=O)N[C@H]1CCCC(=O)N2CCC2(C)COc2ccc(C)c(c2)CNC(=O)[C@H](CCc2ccccc2)NC1=O (stereo partly drawn) [Compound 281, N-((8S,11S)-1^2,4^4-dimethyl-7,10,15-trioxo-8-phenethyl-3-oxa-6,9-diaza-1(2,1)-azetidina-4(1,3)-benzenacyclopentadecaphane-11-yl)acetamide] | 1000 to 5000
22 | COc1ccc(CC(=O)N[C@H]2CC(=O)N3CCCC(CCOc4ccc(C)c(c4)CNC(=O)[C@H](CCc4ccccc4)NC2=O)C3)cc1OC (stereo partly drawn) [Compound 63, 2-(3,4-dimethoxyphenyl)-N-((9S,12S)-5^4-methyl-8,11,14-trioxo-9-phenethyl-4-oxa-7,10-diaza-1(3,1)-piperidina-5(1,3)-benzenacyclotetradecaphane-12-yl)acetamide] | < 100
23 | Cc1ccc2cc1CNC(=O)[C@H](CCc1ccccc1)NC(=O)[C@@H](NS(=O)(=O)Cc1ccccc1)CC(=O)N1CCCC(CCO2)C1 (stereo partly drawn) [Compound 216, N-((9S,12S)-5^4-methyl-8,11,14-trioxo-9-phenethyl-4-oxa-7,10-diaza-1(3,1)-piperidina-5(1,3)-benzenacyclotetradecaphane-12-yl)-1-phenylmethanesulfonamide] | < 100
24 | COc1ccc(CC(=O)N[C@H]2CC(=O)N3CCCC(CCOc4ccc(C)c(c4)CNC(=O)[C@H](CCc4ccccc4)NC2=O)C3)cc1 (stereo partly drawn) [Compound 83, 2-(4-methoxyphenyl)-N-((9S,12S)-5^4-methyl-8,11,14-trioxo-9-phenethyl-4-oxa-7,10-diaza-1(3,1)-piperidina-5(1,3)-benzenacyclotetradecaphane-12-yl)acetamide] | < 100
25 | Cc1ccc2cc1CNC(=O)[C@H](CCc1ccccc1)NC(=O)[C@@H](N)CC(=O)N1CCCC(CCO2)C1 (stereo partly drawn) [Compound 8, (9S,12S)-12-amino-5^4-methyl-9-phenethyl-4-oxa-7,10-diaza-1(3,1)-piperidina-5(1,3)-benzenacyclotetradecaphane-8,11,14-trione] | 100 to 500
